Reference: the supplement of paper PMC10307832

Assays:
Test in all cases: relative viability (nuclei count vs DMSO), 5 days (fraction); higher = more cells survive
Avagacestat = compound: NC(=O)[C@@H](CCC(F)(F)F)N(Cc1ccc(-c2ncon2)cc1F)S(=O)(=O)c1ccc(Cl)cc1 [Avagacestat]
How it was run: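 Hoechst staining, done together with fixation and permeabilisation, marked nuclei for 4× imaging and MetaXpress counting. This followed 5 days without medium change after lung cancer cell lines, kept overnight at 37 °C in 1536-well plates, were pinned with five library-drug doses (not always all listed) spaced by √10 on vehicle-anchored plates. Viability is the ratio of treated-well to vehicle-well nuclei, expressed as a median across plates. Plates passed only at control CV below 25% with at least one doubling.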

Avagacestat + Vorinostat = compound: NC(=O)[C@@H](CCC(F)(F)F)N(Cc1ccc(-c2ncon2)cc1F)S(=O)(=O)c1ccc(Cl)cc1 [Avagacestat] + O=C(CCCCCCC(=O)Nc1ccccc1)NO [Vorinostat] (partner 1 µM)
How it was run: (§1)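 Lung cancer cell lines in 1536-well plates were dosed by pin tool the day after seeding, either with one drug alone or with a fixed anchor-drug dose plus five library-drug doses (not always all listed) in √10 steps. After 5 days, cells were fixed and their nuclei stained in one step (final 0.05% Triton X-100, 1% formaldehyde, 1 ug/ml Hoechst), then counted on 4× images. Relative viability is the nuclei count in treated wells divided by that in vehicle wells. Values are medians of duplicate plates.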

[1] = compound: NC(=O)[C@@H](CCC(F)(F)F)N(Cc1ccc(-c2ncon2)cc1F)S(=O)(=O)c1ccc(Cl)cc1 [Avagacestat] + CC(=O)c1c(C)c2cnc(Nc3ccc(N4CCNCC4)cn3)nc2n(C2CCCC2)c1=O [Palbociclib] (partner 0.5 µM)
How it was run: as §1

Avagacestat + Trametinib = compound: NC(=O)[C@@H](CCC(F)(F)F)N(Cc1ccc(-c2ncon2)cc1F)S(=O)(=O)c1ccc(Cl)cc1 [Avagacestat] + CC(=O)Nc1cccc(-n2c(=O)n(C3CC3)c(=O)c3c(Nc4ccc(I)cc4F)n(C)c(=O)c(C)c32)c1 [Trametinib] (partner 0.02 µM)
How it was run: as §1

Avagacestat + Tozasertib = compound: NC(=O)[C@@H](CCC(F)(F)F)N(Cc1ccc(-c2ncon2)cc1F)S(=O)(=O)c1ccc(Cl)cc1 [Avagacestat] + Cc1cc(Nc2cc(N3CCN(C)CC3)nc(Sc3ccc(NC(=O)C4CC4)cc3)n2)n[nH]1 [Tozasertib] (partner 0.1 µM)
How it was run: as §1

Avagacestat + AZD7762 = compound: NC(=O)[C@@H](CCC(F)(F)F)N(Cc1ccc(-c2ncon2)cc1F)S(=O)(=O)c1ccc(Cl)cc1 [Avagacestat] + NC(=O)Nc1cc(-c2cccc(F)c2)sc1C(=O)N[C@H]1CCCNC1 [AZD7762] (partner 0.2 µM)
How it was run: as §1

Avagacestat + Luminespib = compound: NC(=O)[C@@H](CCC(F)(F)F)N(Cc1ccc(-c2ncon2)cc1F)S(=O)(=O)c1ccc(Cl)cc1 [Avagacestat] + CCNC(=O)c1noc(-c2cc(C(C)C)c(O)cc2O)c1-c1ccc(CN2CCOCC2)cc1 [Luminespib] (partner 0.01 µM)
How it was run: as §1

Avagacestat + OSI-027 = compound: NC(=O)[C@@H](CCC(F)(F)F)N(Cc1ccc(-c2ncon2)cc1F)S(=O)(=O)c1ccc(Cl)cc1 [Avagacestat] + COc1cccc2cc(-c3nc([C@H]4CC[C@H](C(=O)O)CC4)n4ncnc(N)c34)[nH]c12 [OSI-027] (partner 0.5 µM)
How it was run: as §1

Avagacestat + Olaparib = compound: NC(=O)[C@@H](CCC(F)(F)F)N(Cc1ccc(-c2ncon2)cc1F)S(=O)(=O)c1ccc(Cl)cc1 [Avagacestat] + O=C(c1cc(Cc2n[nH]c(=O)c3ccccc23)ccc1F)N1CCN(C(=O)C2CC2)CC1 [Olaparib] (partner 8 µM)
How it was run: as §1

Avagacestat + Pemetrexed = compound: NC(=O)[C@@H](CCC(F)(F)F)N(Cc1ccc(-c2ncon2)cc1F)S(=O)(=O)c1ccc(Cl)cc1 [Avagacestat] + Nc1nc2[nH]cc(CCc3ccc(C(=O)N[C@@H](CCC(=O)O)C(=O)O)cc3)c2c(=O)[nH]1 [Pemetrexed] (partner 0.2 µM)
How it was run: as §1

Avagacestat + Foretinib = compound: NC(=O)[C@@H](CCC(F)(F)F)N(Cc1ccc(-c2ncon2)cc1F)S(=O)(=O)c1ccc(Cl)cc1 [Avagacestat] + COc1cc2c(Oc3ccc(NC(=O)C4(C(=O)Nc5ccc(F)cc5)CC4)cc3F)ccnc2cc1OCCCN1CCOCC1 [Foretinib] (partner 0.25 µM)
How it was run: as §1

Avagacestat + Phenformin = compound: NC(=O)[C@@H](CCC(F)(F)F)N(Cc1ccc(-c2ncon2)cc1F)S(=O)(=O)c1ccc(Cl)cc1 [Avagacestat] + N=C(N)NC(=N)NCCc1ccccc1 [Phenformin] (partner 250 µM)
How it was run: as §1

Avagacestat + Decitabine = compound: NC(=O)[C@@H](CCC(F)(F)F)N(Cc1ccc(-c2ncon2)cc1F)S(=O)(=O)c1ccc(Cl)cc1 [Avagacestat] + Nc1ncn([C@H]2C[C@H](O)[C@@H](CO)O2)c(=O)n1 [Decitabine] (partner 2 µM)
How it was run: as §1

Avagacestat + Dasatinib = compound: NC(=O)[C@@H](CCC(F)(F)F)N(Cc1ccc(-c2ncon2)cc1F)S(=O)(=O)c1ccc(Cl)cc1 [Avagacestat] + Cc1nc(Nc2ncc(C(=O)Nc3c(C)cccc3Cl)s2)cc(N2CCN(CCO)CC2)n1 [Dasatinib] (partner 0.075 µM)
How it was run: as §1

Cell Line: NCI-H2342
- relative viability (Avagacestat; 0.08 µM): 0.955
- relative viability (Avagacestat; 0.253 µM): 0.906
- relative viability (Avagacestat; 0.8 µM): 0.935
- relative viability (Avagacestat; 2.53 µM): 0.888
- relative viability (Avagacestat; 8 µM): 0.949
- relative viability (Avagacestat + Vorinostat; first compound 0.08 µM): 0.845
- relative viability (Avagacestat + Vorinostat; first compound 0.253 µM): 0.822
- relative viability (Avagacestat + Vorinostat; first compound 0.8 µM): 0.842
- relative viability (Avagacestat + Vorinostat; first compound 2.53 µM): 0.705
- relative viability (Avagacestat + Vorinostat; first compound 8 µM): 0.774
- relative viability ([1]; first compound 0.08 µM): 0.527
- relative viability ([1]; first compound 0.253 µM): 0.482
- relative viability ([1]; first compound 0.8 µM): 0.523
- relative viability ([1]; first compound 2.53 µM): 0.523
- relative viability ([1]; first compound 8 µM): 0.552
- relative viability (Avagacestat + Trametinib; first compound 0.08 µM): 0.725
- relative viability (Avagacestat + Trametinib; first compound 0.253 µM): 0.771
- relative viability (Avagacestat + Trametinib; first compound 0.8 µM): 0.784
- relative viability (Avagacestat + Trametinib; first compound 2.53 µM): 0.766
- relative viability (Avagacestat + Trametinib; first compound 8 µM): 0.693
- relative viability (Avagacestat + Tozasertib; first compound 0.08 µM): 0.593
- relative viability (Avagacestat + Tozasertib; first compound 0.253 µM): 0.48
- relative viability (Avagacestat + Tozasertib; first compound 0.8 µM): 0.57
- relative viability (Avagacestat + Tozasertib; first compound 2.53 µM): 0.493
- relative viability (Avagacestat + Tozasertib; first compound 8 µM): 0.527
- relative viability (Avagacestat + AZD7762; first compound 0.08 µM): 0.479
- relative viability (Avagacestat + AZD7762; first compound 0.253 µM): 0.536
- relative viability (Avagacestat + AZD7762; first compound 0.8 µM): 0.589
- relative viability (Avagacestat + AZD7762; first compound 2.53 µM): 0.499
- relative viability (Avagacestat + AZD7762; first compound 8 µM): 0.438
- relative viability (Avagacestat + Luminespib; first compound 0.08 µM): 0.742
- relative viability (Avagacestat + Luminespib; first compound 0.253 µM): 0.703
- relative viability (Avagacestat + Luminespib; first compound 0.8 µM): 0.648
- relative viability (Avagacestat + Luminespib; first compound 2.53 µM): 0.709
- relative viability (Avagacestat + Luminespib; first compound 8 µM): 0.663
- relative viability (Avagacestat + OSI-027; first compound 0.08 µM): 0.589
- relative viability (Avagacestat + OSI-027; first compound 0.253 µM): 0.597
- relative viability (Avagacestat + OSI-027; first compound 0.8 µM): 0.674
- relative viability (Avagacestat + OSI-027; first compound 2.53 µM): 0.602
- relative viability (Avagacestat + OSI-027; first compound 8 µM): 0.572
- relative viability (Avagacestat + Olaparib; first compound 0.08 µM): 0.441
- relative viability (Avagacestat + Olaparib; first compound 0.253 µM): 0.384
- relative viability (Avagacestat + Olaparib; first compound 0.8 µM): 0.486
- relative viability (Avagacestat + Olaparib; first compound 2.53 µM): 0.458
- relative viability (Avagacestat + Olaparib; first compound 8 µM): 0.451
- relative viability (Avagacestat + Pemetrexed; first compound 0.08 µM): 0.849
- relative viability (Avagacestat + Pemetrexed; first compound 0.253 µM): 0.803
- relative viability (Avagacestat + Pemetrexed; first compound 0.8 µM): 0.903
- relative viability (Avagacestat + Pemetrexed; first compound 2.53 µM): 0.725
- relative viability (Avagacestat + Pemetrexed; first compound 8 µM): 0.782
- relative viability (Avagacestat + Foretinib; first compound 0.08 µM): 1.22
- relative viability (Avagacestat + Foretinib; first compound 0.253 µM): 1.05
- relative viability (Avagacestat + Foretinib; first compound 0.8 µM): 0.924
- relative viability (Avagacestat + Foretinib; first compound 2.53 µM): 1.02
- relative viability (Avagacestat + Foretinib; first compound 8 µM): 0.939
- relative viability (Avagacestat + Phenformin; first compound 0.08 µM): 0.634
- relative viability (Avagacestat + Phenformin; first compound 0.253 µM): 0.53
- relative viability (Avagacestat + Phenformin; first compound 0.8 µM): 0.629
- relative viability (Avagacestat + Phenformin; first compound 2.53 µM): 0.59
- relative viability (Avagacestat + Phenformin; first compound 8 µM): 0.588
- relative viability (Avagacestat + Decitabine; first compound 0.08 µM): 0.738
- relative viability (Avagacestat + Decitabine; first compound 0.253 µM): 0.686
- relative viability (Avagacestat + Decitabine; first compound 0.8 µM): 0.706
- relative viability (Avagacestat + Decitabine; first compound 2.53 µM): 0.695
- relative viability (Avagacestat + Decitabine; first compound 8 µM): 0.742
- relative viability (Avagacestat + Dasatinib; first compound 0.08 µM): 0.344
- relative viability (Avagacestat + Dasatinib; first compound 0.253 µM): 0.341
- relative viability (Avagacestat + Dasatinib; first compound 0.8 µM): 0.334
- relative viability (Avagacestat + Dasatinib; first compound 2.53 µM): 0.31
- relative viability (Avagacestat + Dasatinib; first compound 8 µM): 0.302

Cell Line: NCI-H1623
- relative viability (Avagacestat; 0.08 µM): 1.02
- relative viability (Avagacestat; 0.253 µM): 0.935
- relative viability (Avagacestat; 0.8 µM): 1.1
- relative viability (Avagacestat; 2.53 µM): 0.921
- relative viability (Avagacestat; 8 µM): 1
- relative viability (Avagacestat + Tozasertib; first compound 0.08 µM): 0.448
- relative viability (Avagacestat + Tozasertib; first compound 0.253 µM): 0.446
- relative viability (Avagacestat + Tozasertib; first compound 0.8 µM): 0.456
- relative viability (Avagacestat + Tozasertib; first compound 2.53 µM): 0.46
- relative viability (Avagacestat + Tozasertib; first compound 8 µM): 0.445
- relative viability (Avagacestat + Luminespib; first compound 0.08 µM): 0.491
- relative viability (Avagacestat + Luminespib; first compound 0.253 µM): 0.484
- relative viability (Avagacestat + Luminespib; first compound 0.8 µM): 0.913
- relative viability (Avagacestat + Luminespib; first compound 2.53 µM): 0.609
- relative viability (Avagacestat + Luminespib; first compound 8 µM): 0.475
- relative viability (Avagacestat + OSI-027; first compound 0.08 µM): 0.437
- relative viability (Avagacestat + OSI-027; first compound 0.253 µM): 0.454
- relative viability (Avagacestat + OSI-027; first compound 0.8 µM): 0.508
- relative viability (Avagacestat + OSI-027; first compound 2.53 µM): 0.424
- relative viability (Avagacestat + OSI-027; first compound 8 µM): 0.47
- relative viability (Avagacestat + Foretinib; first compound 0.08 µM): 0.879
- relative viability (Avagacestat + Foretinib; first compound 0.253 µM): 0.95
- relative viability (Avagacestat + Foretinib; first compound 0.8 µM): 1.08
- relative viability (Avagacestat + Foretinib; first compound 2.53 µM): 0.813
- relative viability (Avagacestat + Foretinib; first compound 8 µM): 0.86
- relative viability (Avagacestat + Phenformin; first compound 0.08 µM): 0.576
- relative viability (Avagacestat + Phenformin; first compound 0.253 µM): 0.603
- relative viability (Avagacestat + Phenformin; first compound 0.8 µM): 0.614
- relative viability (Avagacestat + Phenformin; first compound 2.53 µM): 0.577
- relative viability (Avagacestat + Phenformin; first compound 8 µM): 0.63
- relative viability (Avagacestat + Dasatinib; first compound 0.08 µM): 0.525
- relative viability (Avagacestat + Dasatinib; first compound 0.253 µM): 0.567
- relative viability (Avagacestat + Dasatinib; first compound 0.8 µM): 0.575
- relative viability (Avagacestat + Dasatinib; first compound 2.53 µM): 0.511
- relative viability (Avagacestat + Dasatinib; first compound 8 µM): 0.577
